Results: ChEMBL document CHEMBL1131834, “Synthesis and antitumoral activities of marine ent-chromazonarol and related compounds” (Bioorg Med Chem Lett, 1999)

Tests used:
Format in all cases: functional, cell-based
[1] = system: HT-29; test: Antitumoral activity was assayed against HT-29 cell line; details: Homo sapiens
[2] = system: P388; test: Antitumoral activity was assayed against P-388 cell line; details: Mus musculus
[3] = system: SK-MEL-28; test: Antitumoral activity was assayed against MEL-28 cell line; details: Homo sapiens
[4] = system: A549; test: Antitumoral activity was assayed against A-549 cell line; details: Homo sapiens

| Compound | IC50 [1] | IC50 [2] | IC50 [3] | IC50 [4] |
| --- | --- | --- | --- | --- |
| CC1(C)CCC[C@@]2(C)C1CC[C@@]1(C)Oc3ccc(O)cc3C[C@@H]12 (some centres not stated) | 15.9 µM | 15.9 µM | 15.9 µM | 15.9 µM |
| CC1=CCC2C(C)(C)CCC[C@]2(C)[C@H]1Cc1cc(O)ccc1O (some centres not stated) | 0.79 µM | 0.16 µM | 0.79 µM | 0.79 µM |
| CC1=CCC2C(C)(C)CCC[C@]2(C)[C@H]1CC1=CC(=O)C=CC1=O (some centres not stated) | 3.2 µM | 0.8 µM | 3.2 µM | 3.2 µM |
